Among the data in patent publication US11040981B2, “Pyrrolotriazine compounds and methods of inhibiting TAM kinases” (Syros Pharmaceuticals, Inc., priority 2017, dated 2021) are IC50 values, retold here.

The target of one assay is T1, AXL (Homo sapiens, UniProt P30530).
T1 sequence (P30530 26-894): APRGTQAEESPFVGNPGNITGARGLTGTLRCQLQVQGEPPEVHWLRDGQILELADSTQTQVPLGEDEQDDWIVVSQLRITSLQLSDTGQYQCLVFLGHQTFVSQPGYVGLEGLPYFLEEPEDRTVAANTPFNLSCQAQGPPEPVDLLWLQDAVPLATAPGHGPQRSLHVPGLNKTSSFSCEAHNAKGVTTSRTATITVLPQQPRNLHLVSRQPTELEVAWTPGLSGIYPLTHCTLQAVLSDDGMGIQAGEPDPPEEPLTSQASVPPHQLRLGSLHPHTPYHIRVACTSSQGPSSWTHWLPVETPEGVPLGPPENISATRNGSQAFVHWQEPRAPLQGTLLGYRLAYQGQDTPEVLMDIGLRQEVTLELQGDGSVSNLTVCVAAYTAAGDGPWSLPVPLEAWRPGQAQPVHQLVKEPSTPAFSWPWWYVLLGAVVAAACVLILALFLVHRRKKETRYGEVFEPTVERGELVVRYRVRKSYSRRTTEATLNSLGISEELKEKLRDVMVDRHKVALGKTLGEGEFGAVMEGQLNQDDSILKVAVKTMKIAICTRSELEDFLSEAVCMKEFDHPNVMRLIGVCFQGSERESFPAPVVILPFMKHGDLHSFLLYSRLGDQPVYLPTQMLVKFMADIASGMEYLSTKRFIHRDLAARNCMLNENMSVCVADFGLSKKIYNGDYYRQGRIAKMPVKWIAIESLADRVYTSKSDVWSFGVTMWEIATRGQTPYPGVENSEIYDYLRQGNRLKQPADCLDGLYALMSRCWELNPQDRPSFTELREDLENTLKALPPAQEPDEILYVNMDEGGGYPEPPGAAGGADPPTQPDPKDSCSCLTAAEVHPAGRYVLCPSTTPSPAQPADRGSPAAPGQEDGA
Briefly: TR-FRET kinase activity assay, AXL. The class given is biochemical. The conditions noted are these: ATP at Km, 60 minutes. A digest of the protocol:
(§1)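 Compounds were tested against each kinase with ATP set at its own Km and a labelled tyrosine peptide substrate. Following one hour at room temperature in buffer containing 10 mM MgCl2 and 1 mM DTT, phosphorylated product was detected by Europium antibody TR-FRET after EDTA quench, and IC50 values were calculated.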
In general terms: In TR-FRET formats the signal depends on donor and acceptor labels being close together.

For another assay, the target named is T2, FLT3 (Homo sapiens, UniProt P36888).
T2 sequence (P36888 27-993): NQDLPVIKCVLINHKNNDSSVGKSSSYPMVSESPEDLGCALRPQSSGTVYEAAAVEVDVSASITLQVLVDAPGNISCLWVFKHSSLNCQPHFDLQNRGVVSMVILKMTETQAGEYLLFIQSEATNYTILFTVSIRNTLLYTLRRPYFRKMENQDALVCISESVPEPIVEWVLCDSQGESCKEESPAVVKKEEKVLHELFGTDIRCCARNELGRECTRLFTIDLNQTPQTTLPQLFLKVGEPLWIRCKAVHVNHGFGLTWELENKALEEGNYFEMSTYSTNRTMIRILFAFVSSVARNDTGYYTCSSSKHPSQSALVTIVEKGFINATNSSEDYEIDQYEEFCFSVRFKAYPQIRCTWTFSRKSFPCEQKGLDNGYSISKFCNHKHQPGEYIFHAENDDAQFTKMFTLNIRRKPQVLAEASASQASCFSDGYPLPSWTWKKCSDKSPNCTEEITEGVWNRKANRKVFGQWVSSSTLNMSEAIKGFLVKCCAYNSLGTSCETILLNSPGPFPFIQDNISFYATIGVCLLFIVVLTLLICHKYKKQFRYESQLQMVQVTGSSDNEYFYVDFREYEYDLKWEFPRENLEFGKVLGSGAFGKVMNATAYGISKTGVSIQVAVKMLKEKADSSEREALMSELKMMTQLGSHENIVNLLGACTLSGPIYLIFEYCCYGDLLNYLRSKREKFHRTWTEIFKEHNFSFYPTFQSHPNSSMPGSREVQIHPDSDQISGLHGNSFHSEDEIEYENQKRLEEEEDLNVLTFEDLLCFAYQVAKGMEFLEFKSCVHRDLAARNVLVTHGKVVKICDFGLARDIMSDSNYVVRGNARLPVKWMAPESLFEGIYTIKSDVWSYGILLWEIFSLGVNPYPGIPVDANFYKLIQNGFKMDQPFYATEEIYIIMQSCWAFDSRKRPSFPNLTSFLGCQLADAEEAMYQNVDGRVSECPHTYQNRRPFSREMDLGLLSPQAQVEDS
Briefly: TR-FRET kinase activity assay, FLT3. The class given is biochemical. The conditions noted are these: ATP at Km, 60 minutes. A digest of the protocol: as §1

SMILES strings stand for the structures.

One may read the IC50 as the point on the concentration scale where inhibition reaches its midpoint. Consider `COC[C@H](C)Nc1ncc2c([C@H]3CC[C@@H](C(=O)N4CCC(F)(F)CC4)CC3)cc([C@H]3CC[C@H](O)CC3)n2n1` [Compound 577], for which the IC50 at AXL is ≤ 100 nM; against FLT3 it was 1000 to 10000 nM.
Take `COC[C@H](C)Nc1ncc2c(-c3cnn(C(C)(C)C(=O)N4CC[C@H](O)C4)c3)cc([C@H]3CC[C@H](O)CC3)n2n1` [Compound 554]: the IC50 was ≤ 100 nM against AXL and 1000 to 10000 nM against FLT3.
For the molecule `COC[C@H](C)Nc1ncc2c(-c3ccnc(N4CCOCC4)c3)cc([C@H]3CC[C@](C)(O)CC3)n2n1` [Compound 549], the figures for the IC50 against AXL and at FLT3 were ≤ 100 nM and 100 to 1000 nM, respectively.
For `COC[C@H](C)Nc1ncc2c(-c3cncc([S@@](C)(=N)=O)c3)cc([C@H]3CC[C@H](O)CC3)n2n1` [Compound 573], in that order: 100 to 1000 nM and > 10000 nM.
On the same counts, the results for `COC[C@H](C)Nc1ncc2c(-c3cnn(C4COC4)c3)cc([C@@H]3CC[C@@H](O)[C@H](C)C3)n2n1` [Compound 589] are ≤ 100 nM and 100 to 1000 nM.
As for `CCN(C(=O)N1CCN(c2cc(-c3cc([C@H]4CC[C@H](O)CC4)n4nc(N[C@@H](C)COC)ncc34)ccn2)CC1)C(C)C` [Compound 514], the IC50 on AXL was ≤ 100 nM; against FLT3 it was 1000 to 10000 nM.
For `COCC(C)Nc1ncc2c(-c3ccc(CN4CCCC4)cc3)cc(C3CCC(O)CC3)n2n1` (centres unmarked) [Compound 142], in that order: ≤ 100 nM and 100 to 1000 nM.
On the same counts, the results for `COC[C@H](C)Nc1ncc2c(-c3cnn(C4COC4)c3)cc(C3CCC(F)(F)CC3)n2n1` [Compound 515] are 100 to 1000 nM and 100 to 1000 nM.
As for `COC[C@H](C)Nc1ncc2c(-c3ccnc(N4CCOCC4)c3)cc([C@H]3CC[C@@H](O)CC3)n2n1` [Compound 546], the values for the IC50 against AXL and at FLT3 were ≤ 100 nM and 100 to 1000 nM, respectively.
For `COC[C@H](C)Nc1ncc2c(-c3ccnc(N4CCN(CC5COC5)CC4)c3)cc([C@H]3CC[C@H](O)CC3)n2n1` [Compound 512], in that order: ≤ 100 nM and 100 to 1000 nM.
Take `COC[C@H](C)Nc1ncc2c(-c3cnn(C(C)(C)C(=O)N4CCOC(C(C)(C)O)C4)c3)cc([C@H]3CC[C@H](O)CC3)n2n1` (some centres unmarked) [Compound 586]: the IC50 was ≤ 100 nM against AXL and 1000 to 10000 nM against FLT3.
For `COCC(C)Nc1ncc2c(-c3ccc(C(C)N4CCOCC4)cc3)cc(C3CCC(O)CC3)n2n1` (centres unmarked) [Compound 143], in that order: ≤ 100 nM and ≤ 100 nM.
For `COC[C@H](C)Nc1ncc2c(-c3ccnc(N4CCO[C@H](C(C)(C)O)C4)c3)cc([C@H]3CC[C@H](O)CC3)n2n1` [Compound 558], in that order: ≤ 100 nM and 100 to 1000 nM.
As for `COC[C@H](C)Nc1ncc2c(-c3ccnc(C4COC4)c3)cc([C@H]3CC[C@H](O)CC3)n2n1` [Compound 566], the IC50 at AXL is ≤ 100 nM; at FLT3 it was 100 to 1000 nM.
With `CC(COc1ccccc1)Nc1ncc2c(-c3cnn(C4COC4)c3)cc([C@H]3CC[C@H](O)CC3)n2n1` (mixture of isomers) [Compound 528], the IC50 on AXL is ≤ 100 nM; on FLT3, 100 to 1000 nM.
Take `CC(C)(O)C1CN(c2cc(-c3cc([C@H]4CC[C@H](O)CC4)n4nc(NCCOC(F)F)ncc34)ccn2)CCO1` (some centres unmarked) [Compound 557]: the IC50 against AXL was ≤ 100 nM; on FLT3, 100 to 1000 nM.
On the same counts, the results for `COC[C@H](C)Nc1ncc2c(-c3cnn(C(C)(C)C(=O)N4CCOC(C(C)(C)O)C4)c3)cc([C@H]3CC[C@H](O)CC3)n2n1` (some centres unmarked) [Compound 556] are ≤ 100 nM and 1000 to 10000 nM.
On the same counts, the results for `C[C@@H](CC(F)(F)F)Nc1ncc2c(-c3cncc([S@](C)(=N)=O)c3)cc([C@H]3CC[C@H](O)CC3)n2n1` [Compound 582] are ≤ 100 nM and 1000 to 10000 nM.
On the same counts, the results for `COC[C@H](C)Nc1ncc2c(-c3cnn(C(C)(C)C(=O)N4CCOCC4)c3)cc([C@H]3CC[C@@](C)(O)CC3)n2n1` [Compound 561] are ≤ 100 nM and 100 to 1000 nM.
As for `COC[C@H](C)Nc1ncc2c(-c3ccnc(N4CCOC(C(C)(C)O)C4)c3)cc([C@H]3CC[C@H](O)CC3)n2n1` (some centres unmarked) [Compound 534], the concentration for half-maximal inhibition (IC50) at AXL is ≤ 100 nM; on FLT3, 100 to 1000 nM.
On the same counts, the results for `Cc1nnc(C(C)(C)n2cc(-c3cc([C@H]4CC[C@H](O)CC4)n4nc(N[C@@H](C)COC(F)F)ncc34)cn2)o1` [Compound 517] are ≤ 100 nM and 1000 to 10000 nM.
For `C[C@@H](CC(F)(F)F)Nc1ncc2c(-c3ccc([S@](C)(=N)=O)nc3)cc([C@H]3CC[C@H](O)CC3)n2n1` [Compound 540], in that order: ≤ 100 nM and ≤ 100 nM.
Consider `C[C@H](Nc1ncc2c(-c3cnn(C(C)(C)C(=O)N4CCOCC4)c3)cc([C@H]3CC[C@H](O)CC3)n2n1)C(F)(F)F` [Compound 537], for which the IC50 is ≤ 100 nM on AXL and 1000 to 10000 nM on FLT3.
Regarding `COC[C@H](C)Nc1ncc2c(-c3cnn(C(C)(C)C(=O)N4CC[C@@H](O)C4)c3)cc([C@H]3CC[C@H](O)CC3)n2n1` [Compound 555], the IC50 against AXL is ≤ 100 nM; against FLT3 it was 1000 to 10000 nM.
`COC[C@H](C)Nc1ncc2c(-c3ccc(CN4CCN(C)CC4)nc3)cc([C@H]3CC[C@H](O)CC3)n2n1` [Compound 565]: the IC50 against AXL is ≤ 100 nM; against FLT3, 100 to 1000 nM.
On the same counts, the results for `CCCCC[C@H](C)Nc1ncc2c([C@H]3CC[C@@H](C(=O)N4CCS(=O)(=O)CC4)CC3)cc([C@H]3CC[C@H](O)CC3)n2n1` [Compound 137] are ≤ 100 nM and 100 to 1000 nM.
For `C[C@@H](CC(F)(F)F)Nc1ncc2c(-c3ccc([S@@](C)(=N)=O)nc3)cc([C@H]3CC[C@H](O)CC3)n2n1` [Compound 541], in that order: ≤ 100 nM and ≤ 100 nM.
On the same counts, the results for `COC[C@H](C)Nc1ncc2c(-c3cnn(C(C)(C)C(=O)N4C[C@@H](C)N[C@@H](C)C4)c3)cc([C@H]3CC[C@@H](O)CC3)n2n1` [Compound 591] are ≤ 100 nM and 1000 to 10000 nM.
For `COC[C@H](C)Nc1ncc2c(C3=CCOCC3)cc([C@H]3CC[C@H](O)CC3)n2n1` [Compound 141], the values for the IC50 at AXL and against FLT3 were ≤ 100 nM and 100 to 1000 nM, respectively.
For `COC[C@H](C)Nc1ncc2c(-c3cnn(C4COC4)c3)cc([C@@H]3CC[C@@H](O)C(C)(C)C3)n2n1` [Compound 570], in that order: 100 to 1000 nM and 100 to 1000 nM.
On the same counts, the results for `COCC(C)Nc1ncc2c(-c3ccc4[nH]cnc4c3)cc(C3CCC(O)CC3)n2n1` (centres unmarked) [Compound 553] are ≤ 100 nM and 100 to 1000 nM.
For `COCC(C)Nc1ncc2c(-c3ccc4ocnc4c3)cc(C3CCC(O)CC3)n2n1` (centres unmarked) [Compound 550], in that order: ≤ 100 nM and 100 to 1000 nM.
As for `CCOCC(C)Nc1ncc2c(-c3ccc(CN4CCN(C)CC4)cc3)cc(C3CCC(O)CC3)n2n1` (centres unmarked) [Compound 138], the IC50 against AXL and at FLT3 was 100 to 1000 nM each time.
For the molecule `COCC(C)Nc1ncc2c(-c3ccnc(N4CCOC(C(C)(C)O)C4)c3)cc(C3CCC(O)CC3)n2n1` (centres unmarked) [Compound 559], the IC50 against AXL is ≤ 100 nM; against FLT3, 100 to 1000 nM.
